Measured values published in US9023844B2, “Heterocyclylpyri (mi) dinylpyrazole as fungicidals” (Bayer Intellectual Property GmbH, priority 2011, dated 2015).
Read-outs that look alike come from different tables or passages of the source.

Legend:
[1] = tested on: DON/Acetyl-DON production by Fusarium graminearum; assay: microbe, parasite or virus in culture; format: cell-based; conditions: at 50 μM; for inhibition at 50 µM: Fusarium graminearum, read-out: Inhibition of DON/AcDON in %
Sphaerotheca fuliginea = assay: Example A: Sphaerotheca test (cucumber) / preventive; format: in vivo
Fusarium graminearum [2] = assay: microbe, parasite or virus in culture; format: cell-based; conditions: for Growth inhibition of Fusarium graminearum in %: at 50 μM; for inhibition at 50 µM: Fusarium graminearum, read-out: Growth inhibition of Fusarium graminearum in %
Pyrenophora teres = assay: Example D: Pyrenophora test (barley) / preventive; format: in vivo
Uromyces appendiculatus = assay: Example B: Uromyces test (beans) / preventive; format: in vivo; conditions: in vivo
[3] = Determination of log P values by HPLC on a reverse phase column (C18), EEC-Directive 79/831 Annex V.A8 (Methods A, B, C); format: physicochemical; conditions: for chromatographic logP: reverse phase C18 HPLC column
Outline: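 Three C18 chromatographic methods following EEC-Directive 79/831 Annex V.A8 gave the logP values. Method C (UPLC, 2.1 mm column) ran at 40 °C and 0.8 mL/min with a 3.25 min 10–95% acetonitrile gradient. Methods A and B both ran at 55 °C and 2.0 mL/min, with gradients of 10–95% in 4.25 min and 5–95% in 1.70 min.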

Leptosphaeria nodorum = assay: Example C: Leptosphaeria test (wheat) / preventive; format: in vivo
Pyricularia oryzae = format: in vivo
Phytophthora infestans = format: in vivo
Venturia inaequalis = assay: Example I: Venturia test (apples) / preventive; conditions: 100 ppm of active ingredient, preventive spray, evaluated 10 days after inoculation
Protocol: After the spray coating has dried on, the plants are inoculated with an aqueous conidia suspension of the causal agent of apple scab (Venturia inaequalis) and then remain for 1 day in an incubation cabinet at approximately 20° C. and a relative atmospheric humidity of 100%.
The plants are then placed in a greenhouse at approximately 21° C. and a relative atmospheric humidity of approximately 90%.
The test is evaluated 10 days after the inoculation.

Plasmopara viticola = assay: Example H: Plasmopara test (grapevines) / preventive; format: in vivo; conditions: in vivo
[4] = tested on: Fusarium nivale (var. majus); assay: Example K: Fusarium nivale (var. majus) test (wheat) / preventive; format: in vivo; conditions: 500 ppm of active ingredient, preventive spray, evaluated 5 days after inoculation
Protocol: After the spray coating has been dried, the plants are slightly injured by using a sandblast and afterwards they are sprayed with a conidia suspension of Fusarium nivale (var. majus).
The test is evaluated 5 days after the inoculation.

Puccinia recondita = assay: Example E: Puccinia test (wheat) / preventive; format: in vivo; conditions: in vivo
Septoria tritici = assay: Example J: Septoria tritici test (wheat) / preventive; format: in vivo; conditions: in vivo
Fusarium graminearum [5] = format: in vivo; conditions: in vivo
[6] = Method B (HPLC, reverse phase C18)
[7] = 500 ppm of active ingredient, cucumber, preventive spray, evaluated 7 days after inoculation
[8] = 500 ppm of active ingredient, barley, preventive spray, evaluated 7-9 days after inoculation
[9] = pH 2.7, values in the synthesis examples, HPLC, reverse phase C18, read-out: log P (pH 2.7)
[10] = 500 ppm of active ingredient, rice, preventive spray, evaluated 7 days after inoculation
[11] = 100 ppm of active ingredient, tomatoes, preventive spray, evaluated 3 days after inoculation
[12] = Method C (HPLC, reverse phase C18)

Structure (SMILES)	Inhibition of DON/AcDON in % [1]	efficacy (Sphaerotheca fuliginea; in vivo)	Growth inhibition of Fusarium graminearum in % (Fusarium graminearum [2])	efficacy (Pyrenophora teres; in vivo)	efficacy (Uromyces appendiculatus)	LogP [3, 6]	efficacy (Leptosphaeria nodorum; in vivo)	efficacy (Pyricularia oryzae; in vivo)	efficacy (Phytophthora infestans; in vivo)	efficacy (Venturia inaequalis)	efficacy (Plasmopara viticola)	efficacy [4]	efficacy (Puccinia recondita)	efficacy (Septoria tritici)	efficacy (Fusarium graminearum [5])	LogP [3, 12]	further results
CC(=O)Nc1cc(-c2c(-c3ccc(F)cc3)nn3c2OCCC3)ccn1 [Example 2]	100%	100%	57%	100%	74%	1.22	88%	90%	92%								
O=C(Nc1cc(-c2c(-c3ccc(F)cc3)nn3c2OCC3)ccn1)C1CC1 [Example 3, N-{4-[6-(4-fluorophenyl)-2,3-dihydropyrazolo[5,1-b][1,3]oxazol-7-yl]pyridin-2-yl}cyclopropanecarboxamide]																	inhibition at 50 µM [1]: 98%; efficacy (Sphaerotheca fuliginea; [7]): 93%; inhibition at 50 µM (Fusarium graminearum [2]): 57%; efficacy (Pyrenophora teres; [8]): 100%; chromatographic logP ([3]; Method B (HPLC, reverse phase C18), read-out: LogP): 1.48; chromatographic logP [3, 9]: 1.48; efficacy (Leptosphaeria nodorum; 500 ppm of active ingredient, wheat, preventive spray, evaluated 7-9 days after inoculation): 88%; efficacy (Pyricularia oryzae; [10]): 95%; efficacy (Phytophthora infestans; [11]): 92%
CC(C)CC(=O)Nc1cc(-c2c(-c3ccccc3)nn3c2OCCC3)ccn1 [Example 11]		100%		100%	94%	1.66	100%	94%		100%	86%	100%	100%	70%	100%		
O=C(Nc1cc(-c2c(-c3ccccc3)nn3c2OCCC3)ccn1)C1CCOCC1 [Example 14]	100%	100%	95%	95%	94%	1.22	95%	94%				100%	100%	100%	86%		
O=C(CC(F)(F)F)Nc1cc(-c2c(-c3ccccc3)nn3c2OCCC3)ccn1 [Example 17]				95%	94%	1.98		94%	95%	100%	100%	100%	100%				
CCC(C)C(=O)Nc1cc(-c2c(-c3ccc(F)cc3)nn3c2OCCC3)ccn1 (centres unmarked) [Example 24]	94%	98%	91%	95%	94%	1.82	95%	94%				100%	100%	100%	90%		
O=C(Nc1cc(-c2c(-c3ccc(F)cc3F)nn3c2OCCC3)ccn1)C1CC1 [Example 36]		100%		95%	92%	1.42	90%	94%				88%	100%	88%	100%		
O=C(Nc1cc(-c2c(-c3ccc(F)cc3F)nn3c2OCCC3)ccn1)C1CCOCC1 [Example 43]	100%	100%	89%	95%	92%	1.39	70%	94%				88%	100%	88%	100%		
CC(=O)Nc1cc(-c2c(-c3ccccc3)nn3c2NCCC3)ccn1 [Example 55, N-[4-(2-phenyl-4,5,6,7-tetrahydropyrazolo[1,5-a]pyrimidin-3-yl)pyridin-2-yl]acetamide]										93%							inhibition at 50 µM [1]: 100%; efficacy (Sphaerotheca fuliginea; [7]): 88%; inhibition at 50 µM (Fusarium graminearum [2]): 100%; efficacy (Pyrenophora teres; [8]): 90%; chromatographic logP ([3]; Method C (HPLC, reverse phase C18), read-out: LogP): 1.13; chromatographic logP [3, 9]: 1.13; efficacy (Pyricularia oryzae; [10]): 70%; efficacy (Phytophthora infestans; [11]): 91%
CC(=O)Nc1cc(-c2c(-c3ccc(F)cc3)nn3c2OC[Si](C)(C)C3)ccn1 [Example 61]				95%	84%		78%	70%	71%	96%	100%		75%			2.01	
CC(C)C(=O)Nc1cc(-c2c(-c3ccc(F)cc3)nn3c2OC[Si](C)(C)C3)ccn1 [Example 76]		95%		95%	94%		75%	90%		100%	100%	100%	95%	86%	86%	2.14	
CCC(=O)Nc1cc(-c2c(-c3ccc(F)cc3)nn3cccnc23)ccn1 [Example 79]		80%		100%					95%	96%	88%					1.91	
C[Si]1(C)COc2c(-c3ccnc(NC(=O)C4CC4)c3)c(-c3ccc(F)cc3)nn2C1 [Example 81]		98%		90%	94%		75%	95%		99%	100%	100%	100%	88%	100%	2.18	
CCC(=O)Nc1cc(-c2c(-c3cccs3)nn3c2OC[Si](C)(C)C3)ccn1 [Example 82]	100%		100%	95%				70%	85%	94%	100%		70%			1.81	
CC(C)C(=O)Nc1cc(-c2c(-c3cccs3)nn3c2OC[Si](C)(C)C3)ccn1 [Example 86]	99%		100%	90%	94%			80%	98%	100%	100%		95%			2.28	
